Measurements taken from patent US20250340591A1, “COMPOSITION FOR PREVENTING OR TREATING INFLAMMATORY BOWEL DISEASE CONTAINING NOVEL COMPOUND” (ANYGEN CO., LTD., priority 2021, published 2025).
Square brackets hold non-standard residues; d marks the D form. Ends that are not written are not given here. Peptide text beside a SMILES is read from it. * marks the point of attachment. His(Trt) = N[C@@H](Cc1cn(C(c2ccccc2)(c2ccccc2)c2ccccc2)cn1)C(=O)O; dHis(Trt) = N[C@H](Cc1cn(C(c2ccccc2)(c2ccccc2)c2ccccc2)cn1)C(=O)O; His(τ-CHPh2) = N[C@@H](Cc1cn(C(c2ccccc2)c2ccccc2)cn1)C(=O)O; sY = N[C@@H](Cc1ccc(OS(=O)(=O)O)cc1)C(=O)O; dPhe(4-Cl) = N[C@H](Cc1ccc(Cl)cc1)C(=O)O; dPhe(4-Me) = Cc1ccc(C[C@@H](N)C(=O)O)cc1; Palmitoyl = CCCCCCCCCCCCCCCC(=O)*; Decanoyl = CCCCCCCCCC(=O)*; Octanoyl = CCCCCCCC(=O)*; Orn = NCCC[C@H](N)C(=O)O; Boc = CC(C)(C)OC(=O)*

Target: T1, GPR39 (Homo sapiens, UniProt O43194)
T1 sequence (O43194 1-453): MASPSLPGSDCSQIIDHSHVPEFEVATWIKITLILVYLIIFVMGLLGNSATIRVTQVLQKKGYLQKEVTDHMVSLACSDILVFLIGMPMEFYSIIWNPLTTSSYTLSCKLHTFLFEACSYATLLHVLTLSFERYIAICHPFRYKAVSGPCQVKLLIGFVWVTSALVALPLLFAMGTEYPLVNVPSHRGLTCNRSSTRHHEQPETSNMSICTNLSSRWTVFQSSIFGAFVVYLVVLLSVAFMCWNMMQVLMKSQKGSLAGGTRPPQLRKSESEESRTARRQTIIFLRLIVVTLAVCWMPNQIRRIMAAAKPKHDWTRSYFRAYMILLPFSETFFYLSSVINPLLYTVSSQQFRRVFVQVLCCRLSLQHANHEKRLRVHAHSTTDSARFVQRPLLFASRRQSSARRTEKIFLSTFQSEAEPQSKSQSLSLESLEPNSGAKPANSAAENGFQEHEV
Test: luciferase assay system (SRE luciferase reporter gene, CV-1 cells expressing GPR39)
Format: cell-based
Design: expressed in transfected cells; host or cells: CV-1 fibroblast cell line (Korea Cell Line Bank), adenoviral transduction at 50 MOI

Compound | ECmax (−fold induction over basal) [fold induction over basal] | also measured
CCCCCCCC(=O)NCCCC[C@H](NC(=O)[C@@H](N)Cc1cn(C(c2ccccc2)c2ccccc2)cn1)C(=O)N[C@H](Cc1ccc(C)cc1)C(=O)N[C@@H](Cc1ccc(OS(=O)(=O)O)cc1)C(=O)O [HKFY-35, (S)-2-((R)-2-((S)-2-((S)-2-amino-3-(1-benzhydryl-1H-imidazol-4-yl)propanamido)-6-octanamidohexanamido)-3-(p-tolyl)propanamido)-3-(4-(sulfooxy)phenyl)propanoic acid] (H-[His(τ-CHPh2)]K(Octanoyl)[dPhe(4-Me)][sY]-OH) | 18.9 ± 0.41 | 
N2-(Nt-(naphthalen-1-ylmethyl)-L-histidyl)-N6-octanoyl-L-lysyl-L-phenylalanyl-L-tyrosine (H(naphthalen‑1‑ylmethyl)K(Octanoyl)FY-OH) [HKFY-10] | 14 ± 2.12 | EC50 (CV-1 cells, GPR39 and SRE luciferase adenovirus, 6 hours treatment): 46.5 ± 1.1 µM
CCCCCCCC(=O)NCCCC[C@H](NC(=O)[C@@H](N)Cc1cn(C(c2ccccc2)c2ccc(OC)cc2)cn1)C(=O)N[C@@H](Cc1ccccc1)C(=O)N[C@@H](Cc1ccc(O)cc1)C(=O)O (stereo partly drawn) [HKFY-20, N2-(Nt-((4-methoxyphenyl)(phenyl)methyl)-L-histidyl)-N6-octanoyl-L-lysyl-L-phenylalanyl-L-tyrosine] | 20.26 ± 2.7 | 
CCCCCCCC(=O)NCCCC[C@H](NC(=O)[C@@H](N)Cc1cn(CC2c3ccccc3-c3ccccc32)cn1)C(=O)N[C@@H](Cc1ccccc1)C(=O)N[C@@H](Cc1ccc(O)cc1)C(=O)O [HKFY-18] | 10 ± 1.48 | 
CCCCCCCC(=O)NCCCC[C@H](NC(=O)[C@H](N)Cc1cn(C(c2ccccc2)(c2ccccc2)c2ccccc2)cn1)C(=O)N[C@H](Cc1ccc(Cl)cc1)C(=O)N[C@H](Cc1ccc(O)cc1)C(=O)O [HKFY-14, ((R)-2-((S)-2-((R)-2-amino-3-(1-trityl-1H-imidazol-4-yl)propanamido)-6-octanamidohexanamido)-3-(4-chlorophenyl)propanoyl)-D-tyrosine] (H-[dHis(Trt)]K(Octanoyl)[dPhe(4-Cl)][dY]-OH) | 20.9 ± 1.4 | 
CCCCCCCC(=O)NCCCC[C@H](NC(=O)[C@H](CO)NC(=O)CNC(=O)[C@@H](N)Cc1cn(C(c2ccccc2)(c2ccccc2)c2ccccc2)cn1)C(=O)N[C@@H](Cc1ccccc1)C(=O)N[C@@H](Cc1ccc(O)cc1)C(=O)O [HKFY-53, N6-octanoyl-N2-(Nt-trityl-L-histidylglycyl-L-seryl)-L-lysyl-L-phenylalanyl-L-tyrosine] (H-[His(Trt)]GSK(Octanoyl)FY-OH) | 8 ± 2.12 | 
CCCCCCCC(=O)NCCCC[C@H](NC(=O)[C@H](N)Cc1cn(C(c2ccccc2)(c2ccccc2)c2ccccc2)cn1)C(=O)N[C@H](Cc1ccc(C)cc1)C(=O)N[C@@H](Cc1ccc(O)cc1)C(=O)O [HKFY-31, ((R)-2-((S)-2-((R)-2-amino-3-(1-trityl-1H-imidazol-4-yl)propanamido)-6-octanamidohexanamido)-3-(p-tolyl)propanoyl)-L-tyrosine] (H-[dHis(Trt)]K(Octanoyl)[dPhe(4-Me)]Y-OH) | 20.9 ± 2.51 | 
CCCCCCCCCCCCCCCC(=O)NCCCC[C@H](NC(=O)[C@@H](N)Cc1cn(C(c2ccccc2)(c2ccccc2)c2ccccc2)cn1)C(=O)N[C@@H](Cc1ccccc1)C(=O)N[C@@H](Cc1ccc(O)cc1)C(=O)O [HKFY-27, N6-palmitoyl-N2-(Nt-trityl-L-histidyl)-L-lysyl-L-phenylalanyl-L-tyrosine] (H-[His(Trt)]K(Palmitoyl)FY-OH) | 20.4 ± 0.57 | 
CCCCCCCC(=O)NCCCC[C@H](NC(=O)[C@@H](N)Cc1cn(C(c2ccccc2)c2ccc(F)cc2F)cn1)C(=O)N[C@H](Cc1ccc(C)cc1)C(=O)N[C@@H](Cc1ccc(O)cc1)C(=O)O (stereo partly drawn) [HKFY-32, ((2R)-2-((2S)-2-((2S)-2-amino-3-(1-((2,4-difluorophenyl)(phenyl)methyl)-1H-imidazol-4-yl)propanamido)-6-octanamidohexanamido)-3-(p-tolyl)propanoyl)-L-tyrosine] | 21.5 ± 2.7 | 
CCCCCCCC(=O)NCCCC[C@H](NC(=O)[C@@H](N)CC1=CNCN1CCC1CCCCC1)C(=O)N[C@@H](Cc1ccccc1)C(=O)N[C@@H](Cc1ccc(O)cc1)C(=O)O [HKFY-7, N2-((S)-2-amino-3-(3-(2-cyclohexylethyl)-2,3-dihydro-1H-imidazol-4-yl)propanoyl)-N6-octanoyl-L-lysyl-L-phenylalanyl-L-tyrosine] | 16 ± 2.2 | 
CCCCCCCC(=O)NCCCC[C@H](NC(=O)[C@@H](N)Cc1cn(C(c2ccccc2)(c2ccccc2)c2ccccc2)cn1)C(=O)N[C@H](Cc1ccc(C)cc1)C(=O)N[C@@H](Cc1ccc(O)cc1)C(=O)O [HKFY-30, ((R)-2-((S)-2-((S)-2-amino-3-(1-trityl-1H-imidazol-4-yl)propanamido)-6-octanamidohexanamido)-3-(p-tolyl)propanoyl)-L-tyrosine] (H-[His(Trt)]K(Octanoyl)[dPhe(4-Me)]Y-OH) | 23.88 ± 3.04 | activity level for GPR39 (in words) (comment on Table 3): higher activity level than other HKFY derivatives; activity and ECmax value for GPR39 (in words) (comment on Table 3, derivatives composed of d-Phe(methyl)): most excellent activity and high ECmax value
CCCCCCCC(=O)NCCCC[C@H](NC(=O)[C@@H](N)Cc1cn(-c2ccc(C(C)(C)C)cc2)cn1)C(=O)N[C@H](Cc1ccc(C)cc1)C(=O)N[C@@H](Cc1ccc(O)cc1)C(=O)O [HKFY-61, ((R)-2-((S)-2-((S)-2-amino-3-(1-(4-(tert-butyl)phenyl)-1H-imidazol-4-yl)propanamido)-6-octanamidohexanamido)-3-(p-tolyl)propanoyl)-L-tyrosine] | 9.88 ± 1.8 | 
CCCCCCCC(=O)NCCCC[C@H](NC(=O)[C@H](Cc1c[nH]c2ccccc12)NC(=O)OC(C)(C)C)C(=O)N[C@H](Cc1ccc(C)cc1)C(=O)N[C@@H](Cc1ccc(O)cc1)C(=O)O [HKFY-78, ((R)-2-((S)-2-((S)-2-((tert-butoxycarbonyl)amino)-3-(1H-indol-3-yl)propanamido)-6-octanamidohexanamido)-3-(p-tolyl)propanoyl)-L-tyrosine] (Boc-WK(Octanoyl)[dPhe(4-Me)]Y-OH) | 11.4 ± 1.54 | 
CCCCCCCC(=O)NCCCC[C@H](NC(=O)[C@@H](N)Cc1cn(C(c2ccccc2)(c2ccccc2)c2ccccc2)cn1)C(=O)N[C@@H](Cc1ccccc1)C(=O)N[C@@H](Cc1c[nH]c2ccccc12)C(=O)O [HKFY-46, N6-octanoyl-N2-(Nt-trityl-L-histidyl)-L-lysyl-L-phenylalanyl-L-tryptophan] (H-[His(Trt)]K(Octanoyl)FW-OH) | 20 ± 0.28 | 
CCCCCCCCCC(=O)NCCCC[C@H](NC(=O)[C@@H](N)Cc1cn(C(c2ccccc2)(c2ccccc2)c2ccccc2)cn1)C(=O)N[C@@H](Cc1ccccc1)C(=O)N[C@@H](Cc1ccc(O)cc1)C(=O)O [HKFY-24, N6-decanoyl-N2-(Nt-trityl-L-histidyl)-L-lysyl-L-phenylalanyl-L-tyrosine] (H-[His(Trt)]K(Decanoyl)FY-OH) | 7.03 ± 0.57 | 
CCCCCCCC(=O)NCCCC[C@H](NC(=O)[C@@H](N)Cc1cn([C@H](c2ccccc2)c2ccc(C)cc2)cn1)C(=O)N[C@@H](Cc1ccccc1)C(=O)N[C@@H](Cc1ccc(O)cc1)C(=O)O [HKFY-22, N6-octanoyl-N2-(Nt-((R)-phenyl(p-tolyl)methyl)-L-histidyl)-L-lysyl-L-phenylalanyl-L-tyrosine] | 21.3 ± 1.8 | 
CCCCCCCC(=O)NCCCC[C@H](NC(=O)[C@@H](N)Cc1cn(C(c2ccccc2)c2ccccc2)cn1)C(=O)O [HKFY-79, N2-(Nt-benzhydryl-L-histidyl)-N6-octanoyl-L-lysine] | 11.2 ± 1.4 | 
CCCCCCCC(=O)NCCCC[C@H](NC(=O)[C@@H](N)Cc1c[nH]c(-c2cccs2)n1)C(=O)N[C@H](Cc1ccc(C)cc1)C(=O)N[C@@H](Cc1ccc(O)cc1)C(=O)O [HKFY-63, ((R)-2-((S)-2-((S)-2-amino-3-(2-(thiophen-2-yl)-1H-imidazol-4-yl)propanamido)-6-octanamidohexanamido)-3-(p-tolyl)propanoyl)-L-tyrosine] | 13.5 ± 1.8 | activity level for GPR39 (in words) (comment on Table 3): higher activity level than other HKFY derivatives
CCCCCCCC(=O)NCCC[C@H](NC(=O)[C@@H](N)Cc1cn(C(c2ccccc2)c2ccccc2)cn1)C(=O)N[C@H](Cc1ccc(C)cc1)C(=O)N[C@@H](Cc1ccc(O)cc1)C(=O)O [HKFY-71, ((R)-2-((S)-2-((S)-2-amino-3-(1-benzhydryl-1H-imidazol-4-yl)propanamido)-5-octanamidopentanamido)-3-(p-tolyl)propanoyl)-L-tyrosine] (H-[His(τ-CHPh2)][Orn](Octanoyl)[dPhe(4-Me)]Y-OH) | 16.4 ± 2.51 | 
